Measured values taken from patent publication US4156724A, “N-acylamino-alpha-arylacetamido cephalosporins and antibacterial compositions and methods containing them” (Sumitomo Chemical Company, Limited, priority 1974, dated 1979).
In brackets after ≈: the same amount, converted by molar mass.

Columns and labels:
Format in all cases: cell-based
Proteus vulgaris HX 19 = assay: Minimum Inhibitory Concentration, Proteus vulgaris HX 19; conditions: Proteus vulgaris HX 19; for MIC: HX19, read-out: Minimum Inhibitory Concentration
Procedure: (§1) anti-microbial activity tests were carried out on the compounds obtained in the Examples.

[1] = test system: Staphylococcus aureus FS 289; assay: Minimum Inhibitory Concentration, Staphylococcus aureus FS 289; conditions: Staphylococcus aureus FS 289, strain resistant to penicillin; for MIC: FS289, read-out: Minimum Inhibitory Concentration
Procedure: as §1
*Staphylococcus aureus FS 289: strain resistant to penicillin

Escherichia coli NIHJ = assay: Minimum Inhibitory Concentration, Escherichia coli NIHJ; conditions: Escherichia coli NIHJ; for MIC: read-out: Minimum Inhibitory Concentration
Procedure: as §1

[2] = test system: Pseudomonas aeruginosa 104; assay: Minimum Inhibitory Concentration, Pseudomonas aeruginosa 104; conditions: Pseudomonas aeruginosa 104; for MIC: read-out: Minimum Inhibitory Concentration
Procedure: as §1

[3] = test system: Enterobacter aerogeneus No. 75; assay: Minimum Inhibitory Concentration, Enterobacter aerogeneus No. 75; conditions: Enterobacter aerogeneus No. 75; for MIC: read-out: Minimum Inhibitory Concentration
Procedure: as §1

[4] = test system: Klebsiella pneumoniae 602; assay: Minimum Inhibitory Concentration, Klebsiella pneumoniae 602; conditions: for MIC: Klebsiella pneumoniae, 602, Klebsiella pneumoniae 602, read-out: Minimum Inhibitory Concentration
Procedure: as §1

Serratia No. 72 = assay: Minimum Inhibitory Concentration, Serratia No. 72
Procedure: as §1

[5] = test system: Staphylococcus aureus 209 P; assay: Minimum Inhibitory Concentration, Staphylococcus aureus 209 P; conditions: Staphylococcus aureus 209 P; for MIC: read-out: Minimum Inhibitory Concentration
Procedure: as §1

Cc1nnc(SCC2=C(C(=O)O)N3C(=O)C(NC(=O)C(NC(=O)c4cnc5c(O)ccnc5c4O)c4cccc(N)c4)C3SC2)s1 (centres unmarked) [Example 76]
MIC (Proteus vulgaris HX 19): 0.2 µg/mL (≈ 0.294 µM) | MIC [1]: 6.25 µg/mL (≈ 9.18 µM) | MIC (Escherichia coli NIHJ): 3.13 µg/mL (≈ 4.6 µM) | MIC [2]: 3.13 µg/mL (≈ 4.6 µM) | MIC [3]: 3.13 µg/mL (≈ 4.6 µM) | MIC [4]: 3.13 µg/mL (≈ 4.6 µM) | MIC (Serratia No. 72): 12.5 µg/mL (≈ 18.4 µM) | MIC [5]: 0.78 µg/mL (≈ 1.15 µM)

Cn1nnnc1SCC1=C(C(=O)O)N2C(=O)C(NC(=O)C(NC(=O)c3cnc4ccc(O)nc4c3O)c3cccc(N)c3)C2SC1 (centres unmarked) [Example 77]
MIC (Proteus vulgaris HX 19): 0.1 µg/mL (≈ 0.15 µM) | MIC [1]: 6.25 µg/mL (≈ 9.4 µM) | MIC (Escherichia coli NIHJ): 3.13 µg/mL (≈ 4.71 µM) | MIC [2]: 3.13 µg/mL (≈ 4.71 µM) | MIC [3]: 3.13 µg/mL (≈ 4.71 µM) | MIC [4]: 3.13 µg/mL (≈ 4.71 µM) | MIC (Serratia No. 72): 12.5 µg/mL (≈ 18.8 µM) | MIC [5]: 0.78 µg/mL (≈ 1.17 µM)

CNc1nnc(SCC2=C(C(=O)O)N3C(=O)C(NC(=O)C(NC(=O)c4cnc5cccnc5c4O)c4cccc(N)c4)C3SC2)s1 (centres unmarked) [Example 78]
MIC (Proteus vulgaris HX 19): 0.2 µg/mL (≈ 0.294 µM) | MIC [1]: 6.25 µg/mL (≈ 9.19 µM) | MIC (Escherichia coli NIHJ): 3.13 µg/mL (≈ 4.6 µM) | MIC [2]: 3.13 µg/mL (≈ 4.6 µM) | MIC [3]: 6.25 µg/mL (≈ 9.19 µM) | MIC [4]: 3.13 µg/mL (≈ 4.6 µM) | MIC (Serratia No. 72): 12.5 µg/mL (≈ 18.4 µM) | MIC [5]: 0.78 µg/mL (≈ 1.15 µM)

NCc1nnc(SCC2=C(C(=O)O)N3C(=O)C(NC(=O)C(NC(=O)c4cnc5cccnc5c4O)c4cccc(N)c4)C3SC2)s1 (centres unmarked) [Example 79]
MIC (Proteus vulgaris HX 19): 0.2 µg/mL (≈ 0.294 µM) | MIC [1]: 12.5 µg/mL (≈ 18.4 µM) | MIC (Escherichia coli NIHJ): 6.25 µg/mL (≈ 9.19 µM) | MIC [2]: 3.13 µg/mL (≈ 4.6 µM) | MIC [3]: 6.25 µg/mL (≈ 9.19 µM) | MIC [4]: 3.13 µg/mL (≈ 4.6 µM) | MIC (Serratia No. 72): 12.5 µg/mL (≈ 18.4 µM) | MIC [5]: 0.78 µg/mL (≈ 1.15 µM)

Nc1cccc(C(NC(=O)c2cnc3cccnc3c2O)C(=O)NC2C(=O)N3C(C(=O)O)=C(CSc4n[nH]c(=O)s4)CSC23)c1 (centres unmarked) [Example 80]
MIC (Proteus vulgaris HX 19): 0.2 µg/mL (≈ 0.3 µM) | MIC [1]: 6.25 µg/mL (≈ 9.37 µM) | MIC (Escherichia coli NIHJ): 3.13 µg/mL (≈ 4.69 µM) | MIC [2]: 3.13 µg/mL (≈ 4.69 µM) | MIC [3]: 3.13 µg/mL (≈ 4.69 µM) | MIC [4]: 3.13 µg/mL (≈ 4.69 µM) | MIC (Serratia No. 72): 12.5 µg/mL (≈ 18.7 µM) | MIC [5]: 0.78 µg/mL (≈ 1.17 µM)

Nc1ccc(C(NC(=O)c2cnc3cccnc3c2O)C(=O)NC2C(=O)N3C(C(=O)O)=C(CSc4nnc(CO)s4)CSC23)cc1 (centres unmarked) [Example 81]
MIC (Proteus vulgaris HX 19): 0.1 µg/mL (≈ 0.147 µM) | MIC [1]: 6.25 µg/mL (≈ 9.18 µM) | MIC (Escherichia coli NIHJ): 1.56 µg/mL (≈ 2.29 µM) | MIC [2]: 3.13 µg/mL (≈ 4.6 µM) | MIC [3]: 3.13 µg/mL (≈ 4.6 µM) | MIC [4]: 3.13 µg/mL (≈ 4.6 µM) | MIC (Serratia No. 72): 12.5 µg/mL (≈ 18.4 µM) | MIC [5]: 1.56 µg/mL (≈ 2.29 µM)

Cn1nnc(SCC2=C(C(=O)O)N3C(=O)C(NC(=O)C(NC(=O)c4cnc5cccnc5c4O)c4ccc(N)cc4)C3SC2)n1 (centres unmarked) [Example 82]
MIC (Proteus vulgaris HX 19): 0.1 µg/mL (≈ 0.154 µM) | MIC [1]: 6.25 µg/mL (≈ 9.63 µM) | MIC (Escherichia coli NIHJ): 3.13 µg/mL (≈ 4.83 µM) | MIC [2]: 3.13 µg/mL (≈ 4.83 µM) | MIC [3]: 3.13 µg/mL (≈ 4.83 µM) | MIC [4]: 1.56 µg/mL (≈ 2.4 µM) | MIC (Serratia No. 72): 12.5 µg/mL (≈ 19.3 µM) | MIC [5]: 0.78 µg/mL (≈ 1.2 µM)

Nc1ccc(C(NC(=O)c2cnccc2O)C(=O)NC2C(=O)N3C(C(=O)O)=C(CSc4nnc(CO)s4)CSC23)cc1 (centres unmarked) [Example 83]
MIC (Proteus vulgaris HX 19): 0.2 µg/mL (≈ 0.318 µM) | MIC [1]: 6.25 µg/mL (≈ 9.93 µM) | MIC (Escherichia coli NIHJ): 6.25 µg/mL (≈ 9.93 µM) | MIC [2]: 6.25 µg/mL (≈ 9.93 µM) | MIC [3]: 12.5 µg/mL (≈ 19.9 µM) | MIC [4]: 6.25 µg/mL (≈ 9.93 µM) | MIC (Serratia No. 72): 50 µg/mL (≈ 79.4 µM) | MIC [5]: 0.39 µg/mL (≈ 0.619 µM)

Nc1cccc(C(NC(=O)c2cnccc2O)C(=O)NC2C(=O)N3C(C(=O)O)=C(CSc4nnc(CO)s4)CSC23)c1 (centres unmarked) [Example 84]
Minimum Inhibitory Concentration (Proteus vulgaris HX 19): 0.2 µg/mL | Minimum Inhibitory Concentration [1]: 6.25 µg/mL | Minimum Inhibitory Concentration (Escherichia coli NIHJ): 6.25 µg/mL | Minimum Inhibitory Concentration [2]: 6.25 µg/mL | Minimum Inhibitory Concentration [3]: 12.5 µg/mL | Minimum Inhibitory Concentration ([4]; Klebsiella pneumoniae 602): 3.13 µg/mL | Minimum Inhibitory Concentration (Serratia No. 72): 50 µg/mL | Minimum Inhibitory Concentration [5]: 0.39 µg/mL

Nc1cccc(C(NC(=O)c2cnccc2O)C(=O)NC2C(=O)N3C(C(=O)O)=C(CSc4ccc(O)nn4)CSC23)c1 (centres unmarked) [Example 85]
MIC (Proteus vulgaris HX 19): 0.2 µg/mL (≈ 0.328 µM) | MIC [1]: 6.25 µg/mL (≈ 10.3 µM) | MIC (Escherichia coli NIHJ): 6.25 µg/mL (≈ 10.3 µM) | MIC [2]: 6.25 µg/mL (≈ 10.3 µM) | MIC [3]: 25 µg/mL (≈ 41 µM) | MIC [4]: 3.13 µg/mL (≈ 5.13 µM) | MIC (Serratia No. 72): 100 µg/mL (≈ 164 µM) | MIC [5]: 0.39 µg/mL (≈ 0.64 µM)

Nc1cccc(C(NC(=O)c2ccnnc2O)C(=O)NC2C(=O)N3C(C(=O)O)=C(CSc4nnc(CO)s4)CSC23)c1 (centres unmarked) [Example 86]
MIC (Proteus vulgaris HX 19): 0.39 µg/mL (≈ 0.618 µM) | MIC [1]: 6.25 µg/mL (≈ 9.91 µM) | MIC (Escherichia coli NIHJ): 12.5 µg/mL (≈ 19.8 µM) | MIC [2]: 12.5 µg/mL (≈ 19.8 µM) | MIC [3]: 12.5 µg/mL (≈ 19.8 µM) | MIC [4]: 6.25 µg/mL (≈ 9.91 µM) | MIC (Serratia No. 72): 50 µg/mL (≈ 79.3 µM) | MIC [5]: 0.78 µg/mL (≈ 1.24 µM)

Nc1cccc(C(NC(=O)c2ccnnc2O)C(=O)NC2C(=O)N3C(C(=O)O)=C(CSc4ccc(O)nn4)CSC23)c1 (centres unmarked) [Example 87]
MIC (Proteus vulgaris HX 19): 0.78 µg/mL (≈ 1.28 µM) | MIC [1]: 6.25 µg/mL (≈ 10.2 µM) | MIC (Escherichia coli NIHJ): 12.5 µg/mL (≈ 20.5 µM) | MIC [2]: 12.5 µg/mL (≈ 20.5 µM) | MIC [3]: 12.5 µg/mL (≈ 20.5 µM) | MIC [4]: 6.25 µg/mL (≈ 10.2 µM) | MIC (Serratia No. 72): 50 µg/mL (≈ 81.9 µM) | MIC [5]: 0.78 µg/mL (≈ 1.28 µM)

Cn1nnnc1SCC1=C(C(=O)O)N2C(=O)C(NC(=O)C(NC(=O)c3cnccc3O)c3ccc(CO)cc3)C2SC1 (centres unmarked) [Example 91]
MIC (Proteus vulgaris HX 19): 0.39 µg/mL (≈ 0.637 µM) | MIC [1]: 6.25 µg/mL (≈ 10.2 µM) | MIC (Escherichia coli NIHJ): 12.5 µg/mL (≈ 20.4 µM) | MIC [2]: 12.5 µg/mL (≈ 20.4 µM) | MIC [3]: 25 µg/mL (≈ 40.8 µM) | MIC [4]: 12.5 µg/mL (≈ 20.4 µM) | MIC (Serratia No. 72): 50 µg/mL (≈ 81.6 µM) | MIC [5]: 0.78 µg/mL (≈ 1.27 µM)
